Calls of active or inactive are those of the source.
Legend:
[1] = Toxicity in male db/db mouse assessed as change in serum lipase at 100 nmol/kg, sc administered twice daily for 7 days; format: organism-based; conditions: in vivo, 168 h, time 7 day
[2] = AUC (inifinity) in male Sprague-Dawley rat at 25 nmol/kg, sc administered as single dose and measured after 24 hrs by LC-MS/MS analysis; format: ADME, organism-based; set-up: dose 25 nmol/kg, time 24 hrs, route sc; conditions: in vivo
[3] = AUC (infinity) in male Sprague-Dawley rat at 25 nmol/kg, iv administered as single dose and measured after 24 hrs by LC-MS/MS analysis; format: ADME, organism-based; set-up: time 24 hrs, dose 25 nmol/kg, route iv; conditions: in vivo
[4] = Toxicity in male db/db mouse assessed as change in liver AST level at 30 nmol/kg, sc administered twice daily for 35 days; format: organism-based; conditions: in vivo, 840 h, time 35 day
Mus musculus [5] = assay: Antidiabetic activity in male db/db mouse assessed as decrease in cumulative food intake at 100 nmol/kg, sc administered twice daily for 7 days; format: functional, organism-based; conditions: time 7.0 day
[6] = Toxicity in male DIO mouse assessed as change in serum amylase at 100 nmol/kg, sc administered twice daily for 7 days; format: organism-based; conditions: in vivo, 168 h, time 7 day
Mus musculus [7] = assay: Antidiabetic activity in male DIO mouse assessed as reduction in acute food intake at 10 nmol/kg, sc measured at 24 hrs post administration; format: functional, organism-based
[8] = Toxicity in male db/db mouse assessed as change in Cre at 100 nmol/kg, sc administered twice daily for 7 days; format: organism-based; conditions: in vivo, 168 h, time 7 day
Mus musculus [9] = assay: Antidiabetic activity in db/db mouse assessed as reduction in blood glucose at 10 nmol/kg, ip pretreated with compound and followed by glucose challenge and measured by oral glucose tolerance test; format: functional, organism-based
Mus musculus [10] = assay: Antidiabetic activity in male […] assessed as reduction in food intake at 30 nmol/kg, sc administered twice daily for 3 weeks; format: functional, organism-based
Mus musculus [11] = assay: Antidiabetic activity in male DIO mouse assessed as decrease in cumulative food intake at 100 nmol/kg, sc administered twice daily for 7 days; format: functional, organism-based; conditions: time 7.0 day
Mus musculus [12] = assay: Antidiabetic activity in male […] assessed as decrease in serum LDL-C level at 30 nmol/kg, sc administered twice daily for 3 weeks; format: functional, organism-based
[13] = Half-life in male Sprague-Dawley rat at 25 nmol/kg, sc administered as single dose and measured after 24 hrs by LC-MS/MS analysis; format: ADME, organism-based; conditions: in vivo
[14] = Toxicity in male DIO mouse assessed as change in liver AST level at 100 nmol/kg, sc administered twice daily for 7 days; format: organism-based; conditions: in vivo, 168 h, time 7 day
Mus musculus [15] = assay: Antidiabetic activity in male […] assessed as increase in plasma FGF21 level at 30 nmol/kg, sc administered twice daily for 3 weeks; format: functional, organism-based
Mus musculus [16] = assay: Antidiabetic activity in non-fasted male db/db mouse assessed as reduction in glucose level at 10 to 100 nmol/kg, sc; format: functional, organism-based; conditions: dose 10-100 nmol/kg, DDE = dose-dependent effect
Mus musculus [17] = assay: Antidiabetic activity in male […] assessed as reduction in body weight at 30 nmol/kg, sc administered twice daily for 3 weeks; format: functional; set-up: scale not given: the % may be the effect or the level left
[18] = Toxicity in male db/db mouse assessed as change in serum amylase at 100 nmol/kg, sc administered twice daily for 7 days; format: organism-based; conditions: in vivo, 168 h, time 7 day
Mus musculus [19] = assay: Antidiabetic activity in DIO mouse assessed as reduction in blood glucose at 10 nmol/kg, ip pretreated with compound and followed by glucose challenge and measured by oral glucose tolerance test; format: functional, organism-based
[20] = Toxicity in male DIO mouse assessed as change in liver ALT level at 100 nmol/kg, sc administered twice daily for 7 days; format: organism-based; conditions: in vivo, 168 h, time 7 day
[21] = Toxicity in male DIO mouse assessed as change in serum lipase at 100 nmol/kg, sc administered twice daily for 7 days; format: organism-based; conditions: in vivo, 168 h, time 7 day
Mus musculus [22] = assay: Antidiabetic activity in male db/db mouse assessed as decrease in fasted blood glucose at 100 nmol/kg, sc administered twice daily for 7 days; format: functional, organism-based; conditions: time 7.0 day
[23] = Toxicity in male DIO mouse assessed as change in Cre at 100 nmol/kg, sc administered twice daily for 7 days; format: organism-based; conditions: in vivo, 168 h, time 7 day
[24] = Cmax in male Sprague-Dawley rat at 25 nmol/kg, sc administered as single dose and measured after 24 hrs by LC-MS/MS analysis; format: ADME, organism-based; set-up: time 24 hrs, dose 25 nmol/kg, route sc; conditions: in vivo
Mus musculus [25] = assay: Antidiabetic activity in DIO mouse assessed as reduction in plasma insulin level at 10 nmol/kg, ip pretreated with compound and followed by glucose challenge and measured by oral glucose tolerance test; format: functional, organism-based
[26] = Toxicity in male db/db mouse assessed as change in liver ALT level at 30 nmol/kg, sc administered twice daily for 35 days; format: organism-based; conditions: in vivo, 840 h, time 35 day
Mus musculus [27] = assay: Antidiabetic activity in male db/db mouse assessed as increase in insulin IOD value at 30 nmol/kg, sc administered twice daily for 35 days; format: functional, organism-based; conditions: time 35.0 day
[28] = MRT in male Sprague-Dawley rat at 25 nmol/kg, sc administered as single dose and measured after 24 hrs by LC-MS/MS analysis; format: ADME, organism-based; conditions: in vivo
Mus musculus [29] = assay: Antidiabetic activity in male […] assessed as improvement in glucose tolerance at 30 nmol/kg, sc administered twice daily for 3 weeks; format: functional, organism-based
Mus musculus [30] = assay: Antidiabetic activity in male […] assessed as decrease in serum triglycerides level at 30 nmol/kg, sc administered twice daily for 3 weeks; format: functional, organism-based
Mus musculus [31] = assay: Antidiabetic activity in male […] assessed as reduction in fasted glucose level at 30 nmol/kg, sc administered twice daily for 3 weeks; format: functional, organism-based
[32] = target: T1, Glucagon-like peptide 1 receptor (Homo sapiens, UniProt P43220); assay: Agonist activity at human GLP-1R expressed in HEK293 cells incubated for 30 mins and assessed as increase in cAMP accumulation measured by HTRF assay; format: functional, cell-based
T1 sequence (P43220 whole entry): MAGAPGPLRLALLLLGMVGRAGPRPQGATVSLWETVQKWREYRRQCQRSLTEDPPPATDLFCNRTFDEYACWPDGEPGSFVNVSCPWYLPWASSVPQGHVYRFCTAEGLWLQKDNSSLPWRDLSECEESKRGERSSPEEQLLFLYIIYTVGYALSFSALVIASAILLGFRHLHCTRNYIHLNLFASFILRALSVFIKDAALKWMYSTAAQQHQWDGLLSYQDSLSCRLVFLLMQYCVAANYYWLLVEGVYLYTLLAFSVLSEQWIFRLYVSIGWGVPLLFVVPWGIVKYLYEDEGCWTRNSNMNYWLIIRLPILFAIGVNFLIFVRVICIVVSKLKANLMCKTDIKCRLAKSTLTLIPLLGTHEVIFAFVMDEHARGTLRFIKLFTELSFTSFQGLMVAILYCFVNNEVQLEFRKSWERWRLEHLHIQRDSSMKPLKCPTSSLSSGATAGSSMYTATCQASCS

Mus musculus [33] = assay: Antidiabetic activity in male db/db mouse assessed as improvement in glucose tolerance at 30 nmol/kg, sc administered twice daily for 35 days; format: functional, organism-based; conditions: time 35.0 day
[34] = Toxicity in male […] assessed as normalization of hepatic lipid content at 30 nmol/kg, sc administered twice daily for 3 weeks; format: organism-based; conditions: in vivo, 504 h
[35] = Toxicity in male DIO mouse assessed as change in BUN at 100 nmol/kg, sc administered twice daily for 7 days; format: organism-based; conditions: in vivo, 168 h, time 7 day
[36] = Half-life in male Sprague-Dawley rat at 25 nmol/kg, iv administered as single dose and measured after 24 hrs by LC-MS/MS analysis; format: ADME, organism-based; conditions: in vivo
[37] = Cmax in male Sprague-Dawley rat at 25 nmol/kg, iv administered as single dose and measured after 24 hrs by LC-MS/MS analysis; format: ADME, organism-based; set-up: dose 25 nmol/kg, time 24 hrs, route iv; conditions: in vivo
Mus musculus [38] = assay: Antidiabetic activity in male db/db mouse assessed as reduction in food consumption at 30 nmol/kg, sc administered twice daily for 35 days; format: functional, organism-based; conditions: time 35.0 day
[39] = Toxicity in male DIO mouse assessed as reduction in body weight at 100 nmol/kg, sc administered twice daily for 7 days; format: organism-based; set-up: scale not given: the % may be the effect or the level left; conditions: in vivo, 168 h, time 7 day
Mus musculus [40] = assay: Antidiabetic activity in male […] assessed as reduction in fat mas at 30 nmol/kg, sc administered twice daily for 3 weeks; format: functional, organism-based
[41] = Toxicity in male db/db mouse assessed as reduction in body weight at 100 nmol/kg, sc administered twice daily for 7 days; format: organism-based; conditions: in vivo, 168 h, time 7 day
[42] = target: T1, Glucagon-like peptide 1 receptor; assay: Agonist activity at human GLP-1R expressed in HEK293 cells incubated for 30 mins and assessed as increase in cAMP accumulation measured by HTRF assay relative to control; format: functional, cell-based; set-up: concentration or dose not given beside the values; conditions: filed as agonist

CCCCCCCCCCCCCCCC(=O)N[C@@H](CCC(=O)NCCCC[C@H](NC(=O)[C@H](Cc1ccc(O)cc1)NC(=O)[C@H](CCCCN)NC(=O)[C@H](CO)NC(=O)[C@@H](NC(=O)[C@H](CC(=O)O)NC(=O)[C@H](CC(N)=O)NC(=O)[C@@H](NC(=O)[C@H](Cc1ccc(O)cc1)NC(=O)[C@@H](NC(=O)CNC(=O)[C@H](CCC(N)=O)NC(=O)[C@@H](CO)NC(=O)[C@@H](N)Cc1c[nH]cn1)[C@@H](C)O)[C@@H](C)O)C(C)C)C(=O)N[C@@H](CC(=O)O)C(=O)N[C@@H](CO)C(=O)N[C@@H](CCCNC(=N)N)C(=O)N[C@@H](CCCNC(=N)N)C(=O)N[C@@H](C)C(=O)N[C@@H](CCC(N)=O)C(=O)N[C@@H](CC(=O)O)C(=O)N[C@@H](Cc1ccccc1)C(=O)N[C@H](C(=O)N[C@@H](CCC(=O)O)C(=O)N[C@@H](Cc1c[nH]c2ccccc12)C(=O)N[C@@H](CC(C)C)C(=O)N[C@@H](CCCCN)C(=O)N[C@@H](CC(N)=O)C(=O)NCC(=O)NCC(=O)N1CCC[C@H]1C(=O)N[C@@H](CO)C(=O)N[C@@H](CO)C(=O)NCC(=O)N[C@@H](C)C(=O)N1CCC[C@H]1C(=O)N1CCC[C@H]1C(=O)N1CCC[C@H]1C(=O)N[C@@H](CO)C(N)=O)[C@@H](C)CC)C(=O)O
16.3%: Activity [39]
4200 ng·h/mL: AUC(0-inf) [3]
132%: Activity [42]
active: Activity (Mus musculus [5]) | Activity (Mus musculus [7]) | Activity (Mus musculus [9]) | Activity (Mus musculus [10]) | Activity (Mus musculus [11]) | Activity (Mus musculus [12]) | Activity (Mus musculus [15]) | Activity (Mus musculus [16]) Dde | Activity (Mus musculus [19]) | Activity (Mus musculus [22]) | Activity (Mus musculus [25]) | Activity (Mus musculus [27]) | Activity (Mus musculus [29]) | Activity (Mus musculus [30]) | Activity (Mus musculus [31]) | Activity (Mus musculus [33]) | Activity (Mus musculus [38]) | Activity (Mus musculus [40])
4 h: half-life [13]
7.7 h: MRT [28]
519 ng/mL: Cmax [24]
2.6 h: half-life [36]
1510 ng/mL: Cmax [37]
4610 ng·h/mL: AUC at 24 h [2]
31 pM: EC50 [32]
Non-Toxic: Activity [1] | Activity [4] | Activity [6] | Activity [8] | Activity [14] | Activity [18] | Activity [20] | Activity [21] | Activity [23] | Activity [26] | Activity [34] | Activity [35] | Activity [41]
28.7%: Activity (Mus musculus [17])

From ChEMBL document CHEMBL5214890 (Eur J Med Chem, 2021)
